Assay results as given in PMC6104039 (Nature Communications, 2018).
Where “and” joins values, the source holds several entries; their conditions need not be identical. Equal values may be shown once. Entries after “also recorded” stand apart in the source; their conditions may differ.

Experiments:
[1] = molecular target: recombinant human sphingosine kinase 1 (Homo sapiens, UniProt Q9NYA1); conditions: 10 μM
Method: (§1) Sphingosine kinase assays were performed using fluorescent NBD-dihydrosphingosine[63],[64]. […] Reactions were stopped with 100 μL methanol, and 5 μL amounts were resolved on Silica Gel 60 thin layer chromatography (TLC) plates using butanol:acetic acid:water (3:1:1). The fluorescent NBD-dihydrosphingosine 1-phosphate band was quantified using a BioRad ChemiDoc imaging system with excitation by UV light.
(§2) Supplementary Figure 2. […] Activity of recombinant
(§3) human sphingosine kinases 1 and 2 (SphK1 and 2) was assessed in the presence of 10 µM
(§4) Activity is expressed as a percentage of the vehicle control.

[2] = molecular target: T1, recombinant human sphingosine kinase 2 (Homo sapiens, UniProt Q9NRA0); assay: Sphingosine kinase assay with NBD-dihydrosphingosine, TLC; type: biochemical; conditions: 10 μM
T1 construct: purchased R&D Systems
T1 sequence (Q9NRA0 whole entry): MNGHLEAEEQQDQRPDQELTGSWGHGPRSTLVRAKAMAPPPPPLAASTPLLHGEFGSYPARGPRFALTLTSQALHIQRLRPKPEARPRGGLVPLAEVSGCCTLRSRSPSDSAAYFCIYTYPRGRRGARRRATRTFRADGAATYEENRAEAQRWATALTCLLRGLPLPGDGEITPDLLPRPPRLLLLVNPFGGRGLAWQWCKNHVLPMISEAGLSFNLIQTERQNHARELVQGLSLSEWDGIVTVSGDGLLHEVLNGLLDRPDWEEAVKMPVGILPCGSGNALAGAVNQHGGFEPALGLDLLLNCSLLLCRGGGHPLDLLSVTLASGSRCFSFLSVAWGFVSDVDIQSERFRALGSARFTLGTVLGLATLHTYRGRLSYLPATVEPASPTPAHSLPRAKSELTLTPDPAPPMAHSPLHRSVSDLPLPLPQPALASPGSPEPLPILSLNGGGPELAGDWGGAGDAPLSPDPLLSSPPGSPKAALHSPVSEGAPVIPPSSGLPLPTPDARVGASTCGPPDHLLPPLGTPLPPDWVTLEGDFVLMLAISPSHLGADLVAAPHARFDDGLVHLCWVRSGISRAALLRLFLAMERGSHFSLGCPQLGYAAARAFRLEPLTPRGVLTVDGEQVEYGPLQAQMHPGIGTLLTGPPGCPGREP
Method: as §1, §2, §3, §4

[3] = P053 accumulation in tissues, LC-MS/MS; type: in vivo, mice; conditions: 5 mg/kg daily for 2 weeks
[4] = test system: gastrocnemius muscle; assay: Targeted analysis of ceramide, SM and HexCer in gastrocnemius muscle; type: in vivo, mice; design: HexCer 18:1/22:0 content of gastrocnemius muscle / SM 34:1 content of gastrocnemius muscle / SM 34:2 content of gastrocnemius muscle / SM 36:2 content of gastrocnemius muscle / SM 36:1 content of gastrocnemius muscle / SM 40:1 content of gastrocnemius muscle / SM 42:2 content of gastrocnemius muscle / SM 42:1 content of gastrocnemius muscle / Cer 18:1/16:0 content of gastrocnemius muscle / Cer 18:1/18:0 content of gastrocnemius muscle / Cer 18:2/18:0 content of gastrocnemius muscle / Cer 18:0/18:0 content of gastrocnemius muscle / Cer 18:1/22:0 content of gastrocnemius muscle / Cer 18:1/24:1 content of gastrocnemius muscle / Cer 18:0/24:1 content of gastrocnemius muscle / Cer 18:1/24:0 content of gastrocnemius muscle / HexCer 18:1/16:0 content of gastrocnemius muscle / HexCer 18:1/18:0 content of gastrocnemius muscle / HexCer 18:1/20:0 content of gastrocnemius muscle: unit not given beside the values

Chain of recombinant human sphingosine kinase 1 (Q9NYA1 whole entry): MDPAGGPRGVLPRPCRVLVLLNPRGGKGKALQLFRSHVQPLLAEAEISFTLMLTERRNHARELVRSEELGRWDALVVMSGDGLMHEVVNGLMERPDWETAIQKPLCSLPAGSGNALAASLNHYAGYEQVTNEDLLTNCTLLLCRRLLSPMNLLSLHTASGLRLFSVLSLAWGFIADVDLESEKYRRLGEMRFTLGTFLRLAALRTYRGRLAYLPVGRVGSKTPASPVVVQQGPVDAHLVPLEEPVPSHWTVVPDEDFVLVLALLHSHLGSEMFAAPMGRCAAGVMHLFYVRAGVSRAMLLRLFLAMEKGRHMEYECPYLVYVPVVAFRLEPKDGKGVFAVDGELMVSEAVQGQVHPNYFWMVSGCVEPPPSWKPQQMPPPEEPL

C[C@@](N)(CO)CCc1ccc(OCc2ccc(Cl)c(Cl)c2)cc1 [P053, (S)-2-amino-4-(4-(3,4-dichlorobenzyloxy)phenyl)-2-methylbutan-1-ol]
reduction in sphingosine kinase 1 activity [1]: did not inhibit; also recorded: does not inhibit; also recorded: no inhibitory activity
inhibition of sphingosine kinase 2 [2]: did not inhibit; also recorded: does not inhibit; also recorded: no inhibitory activity
compound distribution in tissues [3]: higher in liver and kidney than in muscle and adipose tissue
levels of the compound in brain tissue compared to SkM [3]: three-fold lower
uptake in the liver [3]: substantial uptake
C18 ceramide, C18 dihydroceramide and 18:2/18:0 ceramide in gastrocnemius muscle ([4]; 5 mg/kg daily): significant reductions
Cer 18:0/18:0 content of gastrocnemius muscle ([4]; Chow + P053, individual mice): 6.716 and 7.477 and 5.961 and 6.052 and 7.077 and 6.063 and 5.232 and 5.747 and 5.304 and 6.401
Cer 18:0/24:1 content of gastrocnemius muscle ([4]; Chow + P053, individual mice): 3.2091 and 2.598 and 3.667 and 1.8279 and 1.954 and 2.772 and 2.055 and 2.027 and 2.139 and 3.699
Cer 18:1/16:0 content of gastrocnemius muscle ([4]; Chow + P053, individual mice): 0.3484 and 0.3091 and 0.3437 and 0.3068 and 0.4605 and 0.637 and 0.2188 and 0.4293 and 0.2277 and 0.4584
Cer 18:1/18:0 content of gastrocnemius muscle ([4]; Chow + P053, individual mice): 20.203 and 22.2043 and 20.4893 and 19.2549 and 21.0178 and 15.4813 and 13.2288 and 14.0008 and 17.6182 and 17.1195
Cer 18:1/20:0 content of gastrocnemius muscle ([4]; Chow + P053, individual mice): 0.4999 and 0.7758 and 0.6909 and 0.4845 and 0.671 and 0.9486 and 0.5576 and 0.508 and 0.7146 and 0.7451
Cer 18:1/22:0 content of gastrocnemius muscle ([4]; Chow + P053, individual mice): 2.697 and 2.247 and 2.924 and 2.061 and 2.474 and 3.27 and 1.828 and 2.047 and 1.902 and 3.1173
Cer 18:1/24:0 content of gastrocnemius muscle ([4]; Chow + P053, individual mice): 7.198 and 5.637 and 7.43 and 4.359 and 4.709 and 6.914 and 4.421 and 4.245 and 5.265 and 6.526
Cer 18:1/24:1 content of gastrocnemius muscle ([4]; Chow + P053, individual mice): 11.8242 and 9.129 and 9.681 and 7.066 and 8.758 and 11.6384 and 7.885 and 7.128 and 7.643 and 10.6448
Cer 18:2/18:0 content of gastrocnemius muscle ([4]; Chow + P053, individual mice): 0.4658 and 0.5512 and 0.4225 and 0.4514 and 0.5661 and 0.3835 and 0.2283 and 0.4455 and 0.4165 and 0.4597
HexCer 18:1/16:0 content of gastrocnemius muscle ([4]; Chow + P053, individual mice): 0.2006 and 0.1094 and 0.05472 and 0.08462 and 0.1035 and 0.3016 and 0.02008 and 0.2899 and 0.1794 and 0.1526
HexCer 18:1/18:0 content of gastrocnemius muscle ([4]; Chow + P053, individual mice): 2.77 and 1.138 and 0.685 and 0.5505 and 1.7658 and 1.01 and 1.02 and 3.397 and 2.789 and 0.3088
HexCer 18:1/20:0 content of gastrocnemius muscle ([4]; Chow + P053, individual mice): 4.98 and 2.2562 and 1.185 and 0.63 and 2.136 and 1.46 and 2.186 and 5.934 and 4.2225 and 0.5191
HexCer 18:1/22:0 content of gastrocnemius muscle ([4]; Chow + P053, individual mice): 28.6994 and 10.5255 and 7.341 and 3.05 and 12.9786 and 10.4072 and 8.903 and 30.0855 and 20.1916 and 3.513
HexCer 18:1/22:1 content of gastrocnemius muscle ([4]; Chow + P053, individual mice): 2.443 and 0.8441 and 0.5964 and 0.2415 and 0.9642 and 0.3777 and 0.6547 and 2.558 and 1.9817 and 0.2068
HexCer 18:1/24:0 content of gastrocnemius muscle ([4]; Chow + P053, individual mice): 131.55 and 47.7053 and 35.5956 and 20.727 and 57.5213 and 45.8559 and 36.9456 and 110.769 and 86.5459 and 16.7978
HexCer 18:1/24:1 content of gastrocnemius muscle ([4]; Chow + P053, individual mice): 55.5818 and 22.7923 and 17.8764 and 8.062 and 22.9046 and 20.0825 and 17.0776 and 61.9168 and 40.6919 and 8.475
SM 34:1 content of gastrocnemius muscle ([4]; Chow + P053, individual mice): 55.2092 and 65.2319 and 37.406 and 53.6606 and 49.036 and 73.0423 and 41.7651 and 81.6186 and 53.5156 and 54.7372
SM 34:2 content of gastrocnemius muscle ([4]; Chow + P053, individual mice): 2.561 and 2.363 and 1.4133 and 1.332 and 1.809 and 2.655 and 1.68 and 2.4957 and 1.926 and 1.425
SM 36:1 content of gastrocnemius muscle ([4]; Chow + P053, individual mice): 242.303 and 230.3 and 206.587 and 243.389 and 210.049 and 199.927 and 174.992 and 270.736 and 215.295 and 156.154
SM 36:2 content of gastrocnemius muscle ([4]; Chow + P053, individual mice): 3.724 and 3.017 and 3.098 and 3.4 and 2.856 and 3.2428 and 2.648 and 4.315 and 4.019 and 3.053
SM 40:1 content of gastrocnemius muscle ([4]; Chow + P053, individual mice): 97.5537 and 51.1596 and 53.7207 and 21.6057 and 37.8369 and 48.3173 and 39.3705 and 88.0525 and 69.3339 and 48.817
SM 42:1 content of gastrocnemius muscle ([4]; Chow + P053, individual mice): 88.2897 and 52.3856 and 29.1894 and 16.6817 and 42.3452 and 43.7529 and 25.0289 and 89.171 and 54.8125 and 29.4411
